Like-named read-outs stand apart in the source and are kept apart here.
Assays:
Type in all cases: in vivo
Pyricularia oryzae [1] = settings: systemic; 40 ml preparation poured on soil of young rice plants; inoculated 7 days after treatment; evaluated 4 days after inoculation; compared with prior art (Zinkethylen-1,2-bis-dithiocarbamat)
Pyricularia oryzae [2] = settings: protective; young rice plants sprayed to dripping wet, then inoculated; evaluated 4 days after inoculation; compared with prior art (Zinkethylen-1,2-bis-dithiocarbamat)
Phytophthora infestans = settings: curative; young tomato plants inoculated, sprayed after 7 hours incubation; evaluated 3 days after inoculation; compared with prior art (Zinkethylen-1,2-bis-dithiocarbamat)

Row | Compound | Wirksamkeit (Krankheitsbefall) (Pyricularia oryzae [1]) | Wirksamkeit (Krankheitsbefall) (Pyricularia oryzae [2]) | Wirksamkeit (Phytophthora infestans)
1 | C#CC(C)(C)C(C(=O)OC)C(=O)OC [Beispiel 1, 3,3-Dimethyl-2-methoxycarbcnyL-pent-4-insäuremethylester] | deutliche Überlegenheit in der Wirksamkeit gegenüber dem Stand der Technik | – | –
2 | C#CC(C)(C)C(C(=O)O)C(=O)OCC (centres unmarked) [Beispiel 2, 3,3-Dimethyl-2-ethoxycarbonyl-pent-4-insäure] | deutliche Überlegenheit in der Wirksamkeit gegenüber dem Stand der Technik | deutliche Überlegenheit in der Wirksamkeit gegenüber dem Stand der Technik | –
3 | C#CC(C)(C)C(C(N)=O)C(=O)OCC (centres unmarked) [Beispiel 3, 3,3-Dimethyl-2-etrcry-carbonyl-pent-4-insaureamid] | – | deutliche Überlegenheit in der Wirksamkeit gegenüber dem Stand der Technik | deutliche Überlegenheit in der Wirksamkeit gegenüber dem Stand der Technik
4 | CCOC(=O)CC(C)(C)C#CC(=O)OCCI [Beispiel 4, 3,3-DimethyL-5-iodethoxycarbonyl-pent-4-insäureethylester] | deutliche Überlegenheit in der Wirksamkeit gegenüber dem Stand der Technik | deutliche Überlegenheit in der Wirksamkeit gegenüber dem Stand der Technik | –
5 | C#CC(C)(C)C(C(=O)OCC)C(=O)OCC [Beispiel 20, 3,3-Dimethyl-2-ethoxycarbonyl-pent-4-insäureethylester] | deutliche Überlegenheit in der Wirksamkeit gegenüber dem Stand der Technik | – | –

— patent EP0140270A2 (priority 1983, dated 1985)
